According to US9168247B2, “Beta carboline derivatives useful in the treatment of proliferative disorders” (FACULTES UNIVERSITAIRES NOTRE DAME DE LA PAIX, priority 2010, dated 2015):

Assays:
Format in all cases: cell-based, human
U373 glioma cells = test: MTT test, overall cell growth, U373; details: 72 hours of incubation
Procedure, shortened: (§1)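 Glioma (Hs683, T98G, U373) and oesophageal (OE21, OE33) lines seeded at 5,000–8,000 cells/well, treated 24 h later with compound at 1×10^−8 to 1×10^−4 M for 72 h at 37 °C, in sestuplicate.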

[1] = tested on: OE33 oesophageal cancer cells; test: MTT test, overall cell growth, OE33
Procedure, shortened: as §1

U373 cells = test: Cellular imaging (videomicroscopy) of cultured U373 cells: antiproliferative class and global growth ratio; design: key to Anti proliferative class / anti-proliferative class-GGR: class I: actually cytostatic for 3 days (<10% of cell death at the 3rd day); class II: cyctostatic but becomes cytotoxic with <10% cell death on the 2nd day, and >20% of cell death on the 3rd day; class III: cytostatic but rapidly becomes cytotoxic with <10% cell death on the 1st day, >20% of cell death on the 2nd day and >50% of cell death on the 3rd day; class IV: cytotoxic (>50% of cell death on the first day); details: for global growth ratio (GGR): GG treated cells/GG control cells, 72 h after drug addition, drug at its IC50 (MTT-test determined); for anti-proliferative class-GGR: Table 4; for Anti proliferative class: cellular imaging of cultured U373 cells over three consecutive days
Procedure, shortened: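 U373-MG glioma cells seeded at low density, exposed or not to compound […], filmed by videomicroscopy for 72 h, in quadruplicate. Cells counted on first (0 h) and last (72 h) images; GGR = final/initial count, reported as GGR treated/GGR control.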

[2] = Homo sapiens, OE33, 72 hours of incubation

| Compound | IC50 (U373 glioma cells) [µM] | IC50 ([1]; 72 hours of incubation) [µM] | global growth ratio (GGR) (U373 cells) | anti-proliferative class-GGR (U373 cells) | Anti proliferative class (U373 cells) | IC50 (U373 glioma cells; Homo sapiens, U373 MG) [µM] | IC50 [1, 2] [µM] |
| --- | --- | --- | --- | --- | --- | --- | --- |
| Cc1nccc2c1[nH]c1cc(OCc3cccnc3)ccc12 [JR212] | 24 ± 1 | 31 ± 2 | 0.3 | (I) (class I: actually cytostatic for 3 days (<10% of cell death at the 3rd day)) | I (class I: actually cytostatic for 3 days (<10% of cell death at the 3rd day)) |  |  |
| Cc1c2c(cc[n+]1Cc1ccccc1)c1ccc(OCc3ccccc3)cc1n2Cc1ccccc1.[Br-] [CV21/JR95, 1-methyl-2-benzyl-7-benzyloxy-9-benzyl-β-carbolin-2-ium bromide] |  |  | 0.4 | (I) (class I: actually cytostatic for 3 days (<10% of cell death at the 3rd day)) | I (class I: actually cytostatic for 3 days (<10% of cell death at the 3rd day)) | 0.44 ± 0.01 | 0.7 ± 0.1 |
| COCCOc1ccc2c(c1)[nH]c1c(C)nccc12 [JR220] | 64 ± 4 | 66 ± 3 | 0.2 | (I) (class I: actually cytostatic for 3 days (<10% of cell death at the 3rd day)) | I (class I: actually cytostatic for 3 days (<10% of cell death at the 3rd day)) |  |  |
| Cc1nccc2c3ccc(OCc4ccccc4)cc3n(Cc3ccccc3)c12 [CV9/JR84, 1-methyl-7-benzyloxy-9-benzyl-β-carboline] |  |  | 0.3 | (II) | II | 18 ± 2 | 40 ± 4 |
